Data reported in article PMC3668304, “Antidiabetic and antioxidant properties of Ficus deltoidea fruit extracts and fractions” (BMC Complementary and Alternative Medicine, 2013).
≈ marks a conversion by molar mass, not a printed value.

Biological target: T1, rat intestinal α-glucosidase (substrate pNPG)
T1 construct: gene Si; crude native enzyme from Sigma rat intestinal acetone powder
Experiment: colorimetric p-nitrophenol release, […] nm
Assay type: biochemical
Conditions: substrate 4 mM pNPG (added stock); sodium phosphate buffer; 37°C, 30 min; crude enzyme

IC50: 57.79 ± 0.66 µg/mL (≈ 89.5 µM)
SMILES: C[C@H]1O[C@H](O[C@H]2[C@H](O)[C@@H](O)[C@@H](O[C@H]3[C@H](O)[C@@H](O)C(O)O[C@@H]3CO)O[C@@H]2CO)[C@H](O)[C@@H](O)[C@@H]1N[C@H]1C=C(CO)[C@@H](O)[C@H](O)[C@H]1O (stereo partly shown) [acarbose]
